Eight molecules from PubChem BioAssay (NCI) can be followed below.

The structures appear in SMILES notation.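 Grown in 96-well plates, cells were treated for 48 hours with each compound at five concentrations. Insufficient inhibition: endpoint recorded as highest concentration tested. Abbreviation: GI50, concentration required for 50% inhibition of growth. TGI denotes the concentration required for complete inhibition of growth.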 A value given as a limit tells only on which side of the number the result lay.

Some test systems named below: 786-0 renal; HCC-2998 colon; UO-31 renal; NCI-H522 lung; OVCAR-3 ovarian; NCI-H460 lung; SK-MEL-5 melanoma; OVCAR-8 ovarian; T-47D breast; SW-620 colon.
What all share (assay): inhibition of tumour cell growth, NCI panel, 48 h

With `Cn1cccc1-c1cc(-c2ccc(Br)cc2)nc(N)c1C#N`, the GI50 with 786-0 renal was more than 100 µM; with HCC-2998 colon, more than 100 µM; in the experiment with UO-31 renal, more than 100 µM; in the experiment on NCI-H522 lung it was 66 µM; in the experiment on OVCAR-3 ovarian, more than 100 µM; with NCI-H460 lung, more than 100 µM. In addition, the GI50 in the experiment with SK-MEL-5 melanoma, in the experiment with OVCAR-8 ovarian, in the experiment with T-47D breast and with SW-620 colon was more than 100 µM throughout. For the same molecule, the TGI in the experiment on 786-0 renal, in the experiment on HCC-2998 colon, with UO-31 renal, in the experiment with NCI-H522 lung, with OVCAR-3 ovarian and with NCI-H460 lung was more than 100 µM in each case. Moreover, the TGI in the experiment with SK-MEL-5 melanoma, with OVCAR-8 ovarian, with T-47D breast and in the experiment on SW-620 colon was more than 100 µM each time.

With `COc1cc2c(/C=C3\C(=O)Nc4ccc(Br)cc43)c(Cl)n(C)c2cc1C`, the GI50 with 786-0 renal is 0.998 µM; with HCC-2998 colon it was 1.66 µM; in the experiment with UO-31 renal it was 2.46 µM; in the experiment with NCI-H522 lung it was 1.66 µM; in the experiment with OVCAR-3 ovarian it was 1.56 µM; with NCI-H460 lung, 0.916 µM. Besides, the GI50 in the experiment with SK-MEL-5 melanoma is 1.41 µM; with OVCAR-8 ovarian, 5.12 µM; with T-47D breast, 30.8 µM; with SW-620 colon, 3.09 µM. The TGI is 3.94 µM in the experiment on 786-0 renal; 4.62 µM in the experiment with HCC-2998 colon; 11.3 µM in the experiment with UO-31 renal; 4.29 µM in the experiment with NCI-H522 lung; 3.56 µM with OVCAR-3 ovarian; 4.69 µM in the experiment with NCI-H460 lung. The TGI was 2.99 µM in the experiment with SK-MEL-5 melanoma, 20.3 µM in the experiment with OVCAR-8 ovarian, more than 100 µM with T-47D breast and 15.4 µM with SW-620 colon.

`Cc1ccc(Cl)cc1Nc1nc(C(F)(F)F)ccc1C(=O)Oc1ccc(Cl)cc1`: the GI50 in the experiment on 786-0 renal was 14.3 µM; with HCC-2998 colon it was 8.86 µM; in the experiment on UO-31 renal, 16 µM; in the experiment with NCI-H522 lung, 22.3 µM; in the experiment with OVCAR-3 ovarian, 2.55 µM; in the experiment on NCI-H460 lung it was 16.4 µM. For the same molecule, the GI50 was 7.01 µM with SK-MEL-5 melanoma, 7.62 µM with OVCAR-8 ovarian, 6.53 µM in the experiment on T-47D breast and 17 µM with SW-620 colon. The TGI is 30.8 µM with 786-0 renal; 29.4 µM with HCC-2998 colon; 41.8 µM in the experiment with UO-31 renal; more than 100 µM in the experiment on NCI-H522 lung; 8.81 µM with OVCAR-3 ovarian; 54.2 µM in the experiment on NCI-H460 lung. Also, the TGI in the experiment with SK-MEL-5 melanoma is 26.8 µM; in the experiment with OVCAR-8 ovarian, 29 µM; in the experiment on T-47D breast, 42.2 µM; in the experiment on SW-620 colon, more than 100 µM.

On to `O=C(O)/C(Cl)=C(/Cl)C(=O)Nc1cccc(Cl)c1`, for which the TGI was 31.8 µM in the experiment on 786-0 renal; 37.1 µM in the experiment on HCC-2998 colon; 37.4 µM in the experiment with UO-31 renal; 10.1 µM with NCI-H522 lung; 31.4 µM in the experiment on OVCAR-3 ovarian; more than 100 µM in the experiment on NCI-H460 lung. Further, the TGI in the experiment on SK-MEL-5 melanoma came out at 33.1 µM; in the experiment on OVCAR-8 ovarian, 38.9 µM; in the experiment with T-47D breast, 50.8 µM; with SW-620 colon, 32.1 µM.

As for `COc1ccccc1Nc1nc(-c2cc3cccc(C(F)(F)F)c3oc2=O)cs1`, the GI50 was 0.218 µM in the experiment on 786-0 renal; 0.344 µM in the experiment with HCC-2998 colon; 0.527 µM with UO-31 renal; 0.0402 µM in the experiment on NCI-H522 lung; 0.0624 µM in the experiment with OVCAR-3 ovarian; 0.218 µM with NCI-H460 lung. Moreover, the GI50 was 0.169 µM with SK-MEL-5 melanoma, 0.301 µM in the experiment with OVCAR-8 ovarian, 0.0535 µM in the experiment on T-47D breast and 0.144 µM in the experiment on SW-620 colon. In addition, the TGI in the experiment with 786-0 renal is more than 42.9 µM; with HCC-2998 colon it was more than 47.7 µM; in the experiment with UO-31 renal it was more than 57.1 µM; in the experiment on NCI-H522 lung, 1.51 µM; in the experiment on OVCAR-3 ovarian, 0.203 µM; in the experiment on NCI-H460 lung, more than 39.5 µM. Further, the TGI is 0.627 µM with SK-MEL-5 melanoma, more than 100 µM in the experiment on OVCAR-8 ovarian, more than 100 µM in the experiment with T-47D breast and more than 100 µM in the experiment with SW-620 colon.

For `COC(=O)c1ccc2c(c1)nc(-c1ccc(Cl)cc1)n2-c1cc(C(C)(C)C)[nH]n1`, the GI50 in the experiment on 786-0 renal was 3.62 µM; in the experiment with HCC-2998 colon, 3.9 µM; with UO-31 renal it was 3.35 µM; in the experiment on NCI-H522 lung, 3.21 µM; in the experiment on OVCAR-3 ovarian, 2.35 µM; in the experiment with NCI-H460 lung it was 2.95 µM. Moreover, the GI50 in the experiment with SK-MEL-5 melanoma was 2.02 µM; with OVCAR-8 ovarian, 7.33 µM; in the experiment on T-47D breast, 3.64 µM; in the experiment with SW-620 colon, 3.24 µM. Also, the TGI came out at 32 µM with 786-0 renal; 19.8 µM in the experiment with HCC-2998 colon; 44.1 µM in the experiment on UO-31 renal; 20.3 µM with NCI-H522 lung; 6.13 µM in the experiment on OVCAR-3 ovarian; 8.81 µM in the experiment with NCI-H460 lung. The TGI in the experiment on SK-MEL-5 melanoma is 5.1 µM; in the experiment with OVCAR-8 ovarian, 58.2 µM; in the experiment with T-47D breast, more than 100 µM; with SW-620 colon, more than 100 µM.

On to `CC(O)CN(CCN(CC(C)O)CC(C)O)CC(C)O.O=[N+]([O-])O.[Cu+2]` (stereo not drawn), for which the GI50 in the experiment on 786-0 renal was more than 100 µM; with UO-31 renal, more than 100 µM; with NCI-H522 lung it was more than 100 µM; in the experiment with OVCAR-3 ovarian it was more than 100 µM; in the experiment on NCI-H460 lung it was 99.2 µM; in the experiment with SK-MEL-5 melanoma, 24.3 µM. Besides, the GI50 with OVCAR-8 ovarian, in the experiment on T-47D breast and in the experiment on SW-620 colon was more than 100 µM throughout. Besides, the TGI was more than 100 µM in the experiment on 786-0 renal; more than 100 µM in the experiment on UO-31 renal; more than 100 µM with NCI-H522 lung; more than 100 µM in the experiment on OVCAR-3 ovarian; more than 100 µM with NCI-H460 lung; 58.2 µM with SK-MEL-5 melanoma. In addition, the TGI in the experiment with OVCAR-8 ovarian, with T-47D breast and in the experiment with SW-620 colon was more than 100 µM throughout.

On to `Cn1c2ccccc2c2c3c(c4c5ccccc5n(CCCCCC#N)c4c21)C(=O)N(O)C3=O`, for which the GI50 was 1.59 µM in the experiment on 786-0 renal; 2.57 µM in the experiment with HCC-2998 colon; 0.374 µM in the experiment with UO-31 renal; 0.268 µM with NCI-H522 lung; 1.29 µM with OVCAR-3 ovarian; 0.377 µM with NCI-H460 lung. The GI50 was 0.319 µM in the experiment with SK-MEL-5 melanoma, 0.759 µM in the experiment on OVCAR-8 ovarian, 0.419 µM in the experiment on T-47D breast and 0.732 µM in the experiment with SW-620 colon. Also, the TGI in the experiment with 786-0 renal turned out to be 3.81 µM; in the experiment with HCC-2998 colon, 38.5 µM; in the experiment on UO-31 renal, 1.97 µM; with NCI-H522 lung, 1.42 µM; in the experiment on OVCAR-3 ovarian it was 7.9 µM; in the experiment with NCI-H460 lung, 2.34 µM. Moreover, the TGI with SK-MEL-5 melanoma was 1.09 µM; in the experiment on OVCAR-8 ovarian, 10.8 µM; with T-47D breast, 6.89 µM; in the experiment on SW-620 colon it was more than 100 µM.
